Data as given in patent publication US7550469B2, “Heterocyclic amide derivatives and their use as dopamine D3 receptor ligands” (Aventis Pharmaceuticals Inc., priority 2001, dated 2009).
Where two headings read alike, the source gives them in different places.

Molecular target: T1, cloned human dopamine D3 receptors (Homo sapiens, UniProt P35462)
T1 construct: expressed in transfected cells; membrane homogenate
Test: [N-Methyl-3H]Spiroperidol binding to cloned human dopamine D3 receptors (Protocol 1)
In short: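 Membranes from CHO cells stably expressing cloned human D3 receptor were used for [N-methyl-3H]spiroperidol (60-90 Ci/mmol) binding. Assay buffer was 0.05 M Tris HCl pH 7.7 with 120 mM NaCl, 5 mM KCl, 2 mM CaCl2 and 1 mM MgCl2, optionally 0.1% ascorbic acid; total ligand concentration calculated from added CPM.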

[1] = the 21st table, read-out: D3 Ki
[2] = the 16th table, read-out: D3 Ki

T1 sequence (P35462 whole entry): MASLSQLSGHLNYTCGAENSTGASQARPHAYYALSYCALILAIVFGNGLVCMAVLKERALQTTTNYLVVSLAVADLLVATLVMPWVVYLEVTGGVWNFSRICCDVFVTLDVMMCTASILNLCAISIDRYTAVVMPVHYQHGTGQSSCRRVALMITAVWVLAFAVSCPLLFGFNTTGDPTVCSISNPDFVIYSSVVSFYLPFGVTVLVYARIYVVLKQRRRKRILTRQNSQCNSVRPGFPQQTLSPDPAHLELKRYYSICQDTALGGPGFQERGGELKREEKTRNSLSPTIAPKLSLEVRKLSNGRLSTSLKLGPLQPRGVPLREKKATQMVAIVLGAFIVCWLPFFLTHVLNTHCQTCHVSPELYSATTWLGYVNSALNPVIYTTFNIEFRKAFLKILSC

C[C@@H]1CN(c2csc3cc(F)ccc23)C[C@H](C)N1CCCCNC(=O)c1ccc(-c2ccccc2)cc1 [compound 826943]
Ki [1]: 12.7 nM

C[C@@H]1CN(c2csc3cc(F)ccc23)C[C@H](C)N1CCCCNC(=O)c1ccc(C(C)(C)C)cc1 [compound 826944]
Ki [1]: 128 nM

C[C@@H]1CN(c2csc3cc(F)ccc23)C[C@H](C)N1CCCCNC(=O)c1cnc2ccccc2n1 [compound 826945]
Ki [1]: 133 nM

C[C@@H]1CN(c2csc3cc(F)ccc23)C[C@H](C)N1CCCCNC(=O)c1ccc(C(F)(F)F)cc1 [compound 826946]
Ki [1]: 35.9 nM

C[C@@H]1CN(c2csc3cc(F)ccc23)C[C@H](C)N1CCCCNC(=O)c1ccncc1 [compound 826947]
Ki [1]: 47.6 nM

C[C@@H]1CN(c2csc3cc(F)ccc23)C[C@H](C)N1CCCCNC(=O)c1cccnc1Cl [compound 826948]
Ki [1]: 154 nM

C[C@@H]1CN(c2csc3cc(C(F)(F)F)ccc23)C[C@H](C)N1CCCCNC(=O)c1cc2ccccc2n1C [compound 826950]
Ki [1]: 81.2 nM

COc1ccc2[nH]c(C(=O)NCCCCN3[C@H](C)CN(c4csc5cc(C(F)(F)F)ccc45)C[C@@H]3C)cc2c1 [compound 826951]
Ki [1]: 41.3 nM

C[C@@H]1CN(c2csc3cc(C(F)(F)F)ccc23)C[C@H](C)N1CCCCNC(=O)c1c[nH]c2ccccc12 [compound 826952]
Ki [1]: 164 nM

C[C@@H]1CN(c2csc3cc(C(F)(F)F)ccc23)C[C@H](C)N1CCCCNC(=O)c1cccc2[nH]ccc12 [compound 826953]
Ki [1]: 222 nM

C[C@@H]1CN(c2csc3cc(C(F)(F)F)ccc23)C[C@H](C)N1CCCCNC(=O)c1ccc2[nH]ccc2c1 [compound 826954]
Ki [1]: 39.4 nM

C[C@@H]1CN(c2csc3cc(C(F)(F)F)ccc23)C[C@H](C)N1CCCCNC(=O)c1ccc2cc[nH]c2c1 [compound 826955]
Ki [1]: 70.5 nM

C[C@@H]1CN(c2csc3cc(C(F)(F)F)ccc23)C[C@H](C)N1CCCCNC(=O)c1n[nH]c2ccccc12 [compound 826956]
Ki [1]: 190 nM

C[C@@H]1CN(c2csc3cc(C(F)(F)F)ccc23)C[C@H](C)N1CCCCNC(=O)c1cc2ccccc2o1 [compound 826958]
Ki [1]: 148 nM

COc1ccc2[nH]c(C(=O)NCCCCN3[C@H](C)CN(c4csc5cc(F)ccc45)C[C@@H]3C)cc2c1 [compound 826960]
Ki [1]: 15.3 nM

C[C@@H]1CN(c2csc3cc(F)ccc23)C[C@H](C)N1CCCCNC(=O)c1cc2ccccc2n1C [compound 826961]
Ki [1]: 51.2 nM

C[C@@H]1CN(c2csc3cc(F)ccc23)C[C@H](C)N1CCCCNC(=O)c1c[nH]c2ccccc12 [compound 826962]
Ki [1]: 79.8 nM

C[C@@H]1CN(c2csc3cc(F)ccc23)C[C@H](C)N1CCCCNC(=O)c1cccc2[nH]ccc12 [compound 826963]
Ki [1]: 72.9 nM

C[C@@H]1CN(c2csc3cc(F)ccc23)C[C@H](C)N1CCCCNC(=O)c1ccc2[nH]ccc2c1 [compound 826964]
Ki [1]: 32.2 nM

C[C@@H]1CN(c2csc3cc(F)ccc23)C[C@H](C)N1CCCCNC(=O)c1ccc2cc[nH]c2c1 [compound 826965]
Ki [1]: 25.6 nM

C[C@@H]1CN(c2csc3cc(F)ccc23)C[C@H](C)N1CCCCNC(=O)c1n[nH]c2ccccc12 [compound 826966]
Ki [1]: 77.1 nM

C[C@@H]1CN(c2csc3cc(F)ccc23)C[C@H](C)N1CCCCNC(=O)c1cc2ccccc2o1 [compound 827036]
Ki [1]: 51.2 nM

C[C@@H]1CN(c2csc3cc(C(F)(F)F)ccc23)C[C@H](C)N1CCCCNC(=O)c1cccs1 [compound 827037]
Ki [1]: 106 nM

C[C@@H]1CN(c2csc3cc(C(F)(F)F)ccc23)C[C@H](C)N1CCCCNC(=O)c1cccc(Cl)c1 [compound 827038]
Ki [1]: 155 nM

COc1cc(OC)cc(C(=O)NCCCCN2[C@H](C)CN(c3csc4cc(C(F)(F)F)ccc34)C[C@@H]2C)c1 [compound 827039]
Ki [1]: 378 nM

C[C@@H]1CN(c2csc3cc(C(F)(F)F)ccc23)C[C@H](C)N1CCCCNC(=O)c1ccc(OC(F)(F)F)cc1 [compound 827040]
Ki [1]: 165 nM

C[C@@H]1CN(c2csc3cc(C(F)(F)F)ccc23)C[C@H](C)N1CCCCNC(=O)c1cccc2ccccc12 [compound 827041]
Ki [1]: 357 nM

C[C@@H]1CN(c2csc3cc(C(F)(F)F)ccc23)C[C@H](C)N1CCCCNC(=O)c1ccc2ccccc2c1 [compound 827042]
Ki [1]: 112 nM

C[C@@H]1CN(c2csc3cc(C(F)(F)F)ccc23)C[C@H](C)N1CCCCNC(=O)c1cccc(C(F)(F)F)c1 [compound 827043]
Ki [1]: 322 nM

C[C@@H]1CN(c2csc3cc(C(F)(F)F)ccc23)C[C@H](C)N1CCCCNC(=O)c1cccc(F)c1 [compound 827044]
Ki [1]: 186 nM

C[C@@H]1CN(c2csc3cc(C(F)(F)F)ccc23)C[C@H](C)N1CCCCNC(=O)c1cc2ccccc2s1 [compound 827045]
Ki [1]: 97.8 nM

C[C@@H]1CN(c2csc3cc(C(F)(F)F)ccc23)C[C@H](C)N1CCCCNC(=O)c1cccs1 [compound 827046]
Ki [1]: 56.9 nM

C[C@@H]1CN(c2csc3cc(F)ccc23)C[C@H](C)N1CCCCNC(=O)c1cccc(Cl)c1 [compound 827047]
Ki [1]: 65.1 nM

COc1cc(OC)cc(C(=O)NCCCCN2[C@H](C)CN(c3csc4cc(F)ccc34)C[C@@H]2C)c1 [compound 827048]
Ki [1]: 317 nM

C[C@@H]1CN(c2csc3cc(F)ccc23)C[C@H](C)N1CCCCNC(=O)c1ccc(OC(F)(F)F)cc1 [compound 827049]
Ki [1]: 50.9 nM

C[C@@H]1CN(c2csc3cc(F)ccc23)C[C@H](C)N1CCCCNC(=O)c1cccc2ccccc12 [compound 827050]
Ki [1]: 186 nM

C[C@@H]1CN(c2csc3cc(F)ccc23)C[C@H](C)N1CCCCNC(=O)c1ccc2ccccc2c1 [compound 827051]
Ki [1]: 29.5 nM

C[C@@H]1CN(c2csc3cc(F)ccc23)C[C@H](C)N1CCCCNC(=O)c1cccc(C(F)(F)F)c1 [compound 827052]
Ki [1]: 153 nM

C[C@@H]1CN(c2csc3cc(F)ccc23)C[C@H](C)N1CCCCNC(=O)c1cccc(F)c1 [compound 827053]
Ki [1]: 53.9 nM

C[C@@H]1CN(c2csc3cc(F)ccc23)C[C@H](C)N1CCCCNC(=O)c1cc2ccccc2s1 [compound 827054]
Ki [1]: 43.5 nM

O=C(NCCCCN1CCCN(c2csc3cc(F)ccc23)CC1)c1cc2cccc(F)c2o1 [compound 827120]
Ki (Table 2, read-out: D3K1): 32.9 nM | Ki [2]: 32.9 nM

COc1cccc2cc(C(=O)NCCCCN3CCCN(c4csc5cc(F)ccc45)CC3)oc12 [compound 827121]
Ki (Table 2, read-out: D3K1): 21.6 nM | Ki [2]: 21.6 nM

COc1ccc2cc(C(=O)NCCCCN3CCCN(c4csc5cc(F)ccc45)CC3)oc2c1 [compound 827122]
Ki (Table 2, read-out: D3K1): 6.06 nM | Ki [2]: 6.06 nM

CCN(CC)c1ccc2cc(C(=O)NCCCCN3CCCN(c4csc5cc(F)ccc45)CC3)oc2c1 [compound 827123]
Ki (Table 2, read-out: D3K1): 107 nM | Ki [2]: 107 nM

O=C(NCCCCN1CCCN(c2csc3cc(F)ccc23)CC1)c1cc2c(Cl)cc(Cl)cc2o1 [compound 827124]
Ki (Table 2, read-out: D3K1): 16.6 nM | Ki [2]: 16.6 nM

COc1cc(Br)cc2cc(C(=O)NCCCCN3CCCN(c4csc5cc(F)ccc45)CC3)oc12 [compound 827125]
Ki (Table 2, read-out: D3K1): 28.3 nM | Ki [2]: 28.3 nM

O=C(NCCCCN1CCCN(c2csc3cc(F)ccc23)CC1)c1cc2cc(OC(F)(F)F)ccc2o1 [compound 827127]
Ki (Table 2, read-out: D3K1): 74.3 nM | Ki [2]: 74.3 nM

COc1cccc2oc(C(=O)NCCCCN3CCCN(c4csc5cc(F)ccc45)CC3)cc12 [compound 827128]
Ki (Table 2, read-out: D3K1): 19.1 nM | Ki [2]: 19.1 nM

Cc1ccc2oc(C(=O)NCCCCN3CCCN(c4csc5cc(F)ccc45)CC3)cc2c1 [compound 827129]
Ki (Table 2, read-out: D3K1): 7.75 nM | Ki [2]: 7.75 nM

Cc1ccc2cc(C(=O)NCCCCN3CCCN(c4csc5cc(F)ccc45)CC3)oc2c1 [compound 827130]
Ki (Table 2, read-out: D3K1): 15.4 nM | Ki [2]: 15.4 nM

COc1cc(C)c2cc(C(=O)NCCCCN3CCCN(c4csc5cc(F)ccc45)CC3)oc2c1OC [compound 827131]
Ki (Table 2, read-out: D3K1): 4.18 nM | Ki [2]: 4.18 nM

CC(C)(C)c1cc(C(C)(C)C)c2oc(C(=O)NCCCCN3CCCN(c4csc5cc(F)ccc45)CC3)cc2c1 [compound 827132]
Ki (Table 2, read-out: D3K1): 129 nM | Ki [2]: 129 nM

CCOc1cccc2cc(C(=O)NCCCCN3CCCN(c4csc5cc(F)ccc45)CC3)oc12 [compound 827133]
Ki (Table 2, read-out: D3K1): 12.6 nM | Ki [2]: 12.6 nM

O=C(NCCCN1CCCN(c2csc3cc(F)ccc23)CC1)c1cccs1 [compound 827134]
Ki (Table 2, read-out: D3K1): 62 nM | Ki [2]: 62 nM

O=C(NCCCN1CCCN(c2csc3cc(F)ccc23)CC1)c1cccc(Cl)c1 [compound 827135]
Ki (Table 2, read-out: D3K1): 141 nM | Ki [2]: 141 nM

COc1cc(OC)cc(C(=O)NCCCN2CCCN(c3csc4cc(F)ccc34)CC2)c1 [compound 827136]
Ki (Table 2, read-out: D3K1): 268 nM | Ki [2]: 268 nM

O=C(NCCCN1CCCN(c2csc3cc(F)ccc23)CC1)c1cccc2ccccc12 [compound 827138]
Ki (Table 2, read-out: D3K1): 166 nM | Ki [2]: 166 nM

O=C(NCCCN1CCCN(c2csc3cc(F)ccc23)CC1)c1ccc2ccccc2c1 [compound 827139]
Ki (Table 2, read-out: D3K1): 131 nM | Ki [2]: 131 nM

COc1ccccc1C(=O)NCCCN1CCCN(c2csc3cc(F)ccc23)CC1 [compound 827141]
Ki (Table 2, read-out: D3K1): 99 nM | Ki [2]: 99 nM

O=C(NCCCN1CCCN(c2csc3cc(F)ccc23)CC1)c1cccc(F)c1 [compound 827142]
Ki (Table 2, read-out: D3K1): 101 nM | Ki [2]: 101 nM

O=C(NCCCN1CCCN(c2csc3cc(F)ccc23)CC1)c1cc2ccccc2s1 [compound 827143]
Ki (Table 2, read-out: D3K1): 123 nM | Ki [2]: 123 nM

O=C(NCCCCCN1CCCN(c2csc3cc(F)ccc23)CC1)c1cc(-c2ccco2)nc2ccccc12 [compound 827159]
Ki (Table 2, read-out: D3K1): 5.85 nM | Ki [2]: 5.85 nM

CC1=C(C(=O)NCCCCN2[C@H](C)CN(c3csc4cc(F)ccc34)C[C@@H]2C)Cc2ccccc21 [compound 827255]
Ki [1]: 53.7 nM

O=C(NC/C=C\CN1CCN(c2csc3cc(C(F)(F)F)ccc23)CC1)c1cc2ccccc2s1 [compound 827709]
Ki (read-out: D3K1): 28 nM

O=C(NC/C=C/CN1CCN(c2csc3cc(C(F)(F)F)ccc23)CC1)c1ccsc1 [compound 827710]
Ki (read-out: D3K1): 31 nM
